{"source": "patent US20180133331A1", "about": "“Site-Specific DNA-Doxorubicin Conjugates Display Enhanced Cytotoxicity to Breast Cancer Cells” (priority 2014, published 2018)", "system": "Salmon Sperm DNA", "test": "Dox transfer from DCH to salmon sperm DNA (fluorescence quenching, stability of Dox:hairpin conjugate)", "type": "physicochemical", "conditions": "100-fold excess spDNA (w/w), 37° C.", "experimental": "Dox transfer from DCH: Samples of 2.5 μM (approximately 2 μg in 100 uL) DCH, doxorubicin, or hairpin+doxorubicin were prepared in DPBS with or without a 100-fold by weight (200 μg) excess of Salmon Sperm DNA and incubated at 37° C. Fluorescence intensity was determined by Typhoon-9210 variable mode imager with excitation set to 532 nm and the emission filter at 610 nm.\nStability of Dox:Hairpin Conjugate. It was hypothesized that covalent binding of Dox would allow for the Dox-conjugated hairpin to serve as a delivery vehicle with improved pharmacological properties and reduced systemic toxicities relative to conventional Dox. In order for the hairpin to act as an efficient delivery vehicle, Dox must remain stably bound under physiological conditions, but also undergo intracellular release and transfer to genomic DNA. […] Using the difference in fluorescence between hairpin-bound Dox and Dox intercalated into DNA, the half-life of the Dox-hairpin bond was measured. An assay was developed to quantify the transfer of Dox from the hairpin to genomic DNA under physiologic conditions. This assay is based on the difference in fluorescence of Dox in the context of the hairpin conjugate relative to genomic DNA. […] Reactions were incubated at 37° C. with fluorescence quenching measured over 48 h. […]", "data": [{"smiles": "COc1cccc2c1C(=O)c1c(O)c3c(c(O)c1C2=O)C[C@@](O)(C(=O)CO)C[C@@H]3O[C@H]1C[C@H](N)[C@H](O)[C@H](C)O1", "note": "[Dox, Doxorubicin]", "values": [{"measurement": "fluorescence quenching following addition of spDNA", "value": "fully quenched within one hour"}]}]}
